# Results: US20230303549A1, “SUBSTITUTED HETEROARYLOXYPYRIDINES, THE SALTS THEREOF AND THEIR USE AS HERBICIDAL AGENTS” (Bayer Aktiengesellschaft, priority 2020, published 2023)
# Key:
# Format in all cases: in vivo
# [1] = system: Abutilon theophrasti (ABUTH); test: Post-emergence herbicidal efficacy at 320 g/ha, greenhouse pot test; details: visual rating vs untreated control after about 3 weeks
# Description: (§1) Seeds of mono- and dicotyledonous weed plants were placed in plastic pots in sandy loam soil (doubly sown with in each case one species of mono- or dicotyledonous weed plants per pot), covered with soil and cultivated in a greenhouse under controlled growth conditions. 2 to 3 weeks after sowing, the test plants were treated at the one-leaf stage. The compounds of the invention, formulated in the form of wettable powders (WP) or as emulsion concentrates (EC), were applied onto the green parts of the plants as aqueous suspension or emulsion with addition of 0.5% additive at a water application rate of 600 liters per hectare (converted). After the test plants had been kept in the greenhouse under optimum growth conditions for about 3 weeks, the activity of the preparations was rated visually in comparison to untreated controls. For example, 100% activity=the plants have died, 0% activity=like control plants. Tables […] 11 below show the effects of selected compounds of the general formula (I) according to Table 1 on various harmful plants and an application rate corresponding to 320 g/ha, which were obtained by the experimental procedure mentioned above.
# [2] = system: Alopecurus myosuroides (ALOMY); test: as above; details: visual rating vs untreated control after about 3 weeks
# Description: as §1
# [3] = system: Amaranthus retroflexus (AMARE); test: as above; details: visual rating vs untreated control after about 3 weeks
# Description: as §1
# [4] = system: Bassia scoparia (KCHSC); test: as above; details: visual rating vs untreated control after about 3 weeks
# Description: as §1
# [5] = system: Poa annua (POAAN); test: as above; details: visual rating vs untreated control after about 3 weeks
# Description: as §1
# [6] = system: Stellaria media (STEME); test: as above; details: visual rating vs untreated control after about 3 weeks
# Description: as §1
# [7] = system: Veronica persica (VERPE); test: as above; details: 320 g/ha, visual rating vs untreated control after about 3 weeks
# Description: as §1
# [8] = system: Amaranthus retroflexus (AMARE); test: Post-emergence herbicidal efficacy at 80 g/ha, greenhouse pot test; details: visual rating vs untreated control after about 3 weeks
# Description: (§2) Seeds of monocotyledonous and dicotyledonous weeds and crop plants were placed in sandy loam in plastic or organic planting pots, covered with soil and cultivated in a greenhouse under controlled growth conditions. 2 to 3 weeks after sowing, the test plants were treated at the one-leaf stage. The compounds of the invention, formulated in the form of wettable powders (WP) or as emulsion concentrates (EC), were then sprayed onto the green parts of the plants as aqueous suspension or emulsion with addition of 0.5% additive at a water application rate of 600 l/ha (converted). After the test plants had been kept in the greenhouse under optimum growth conditions for about 3 weeks, the activity of the preparations was rated visually in comparison to untreated controls. For example, 100% activity=the plants have died, 0% activity=like control plants. Tables B1 to B6 below show the effects of selected compounds of the general formula (I) according to Table 1 on various harmful plants and an application rate corresponding to 80 g/ha, which were obtained by the experimental procedure mentioned above.
# [9] = system: Viola tricolor (VIOTR); test: as above; details: visual rating vs untreated control after about 3 weeks
# Description: as §2
# [10] = system: Abutilon theophrasti (ABUTH); test: Pre-emergence herbicide efficacy at 320 g/ha, greenhouse pot test; details: visual scoring vs untreated control after about 3 weeks
# Source text: (§3) Seeds of mono- and dicotyledonous weed plants were placed in plastic pots in sandy loam soil (doubly sown with in each case one species of mono- or dicotyledonous weed plants per pot) and covered with soil. The compounds of the invention, formulated in the form of wettable powders (WP) or as emulsion concentrates (EC), were then applied onto the surface of the covering soil as aqueous suspension or emulsion with addition of 0.5% additive at a water application rate of 600 liters per hectare (converted). After the treatment, the pots were placed in a greenhouse and kept under good growth conditions for the test plants. After about 3 weeks, the effect of the preparations was scored visually in comparison with untreated controls as percentages. For example, 100% activity=the plants have died, 0% activity=like control plants. Tables C1 to C12 below show the effects of selected compounds of the general formula (I) according to Table 1 on various harmful plants and an application rate corresponding to 320 g/ha, which were obtained by the experimental procedure mentioned above.
# [11] = system: Alopecurus myosuroides (ALOMY); test: as above; details: visual scoring vs untreated control after about 3 weeks
# Source text: as §3
# [12] = system: Amaranthus retroflexus (AMARE); test: as above; details: visual scoring vs untreated control after about 3 weeks
# Source text: as §3
# [13] = system: Bassia scoparia (KCHSC); test: as above
# Source text: as §3
# [14] = system: Echinochloa crus-galli (ECHCG); test: as above; details: visual scoring vs untreated control after about 3 weeks
# Source text: as §3
# [15] = system: Lolium rigidum (LOLRI); test: as above; details: visual scoring vs untreated control after about 3 weeks
# Source text: as §3
# [16] = system: Matricaria inodora (MATIN); test: as above; details: visual scoring vs untreated control after about 3 weeks
# Source text: as §3
# [17] = system: Poa annua (POAAN); test: as above; details: visual scoring vs untreated control after about 3 weeks
# Source text: as §3
# [18] = system: Setaria viridis (SETVI); test: as above; details: visual scoring vs untreated control after about 3 weeks
# Source text: as §3
# [19] = system: Stellaria media (STEME); test: as above; details: visual scoring vs untreated control after about 3 weeks
# Source text: as §3
# [20] = system: Veronica persica (VERPE); test: as above; details: visual scoring vs untreated control after about 3 weeks
# Source text: as §3
# [21] = system: Abutilon theophrasti (ABUTH); test: Pre-emergence herbicide efficacy at 80 g/ha, greenhouse pot test; details: visual scoring vs untreated control after about 3 weeks
# Source text: (§4) Seeds of monocotyledonous and dicotyledonous weed plants and crop plants were placed in plastic or organic planting pots and covered with soil. The compounds of the invention, formulated in the form of wettable powders (WP) or as emulsion concentrates (EC), were then applied to the surface of the covering soil as aqueous suspension or emulsion with addition of 0.5% additive at a water application rate of […] (converted). After the treatment, the pots were placed in a greenhouse and kept under good growth conditions for the test plants. After about 3 weeks, the effect of the preparations was scored visually in comparison with untreated controls as percentages. For example, 100% activity=the plants have died, 0% activity=like control plants. Tables D1 to D12 below show the effects of selected compounds of the general formula (I) according to Table 1 on various harmful plants and an application rate corresponding to 80 g/ha, which were obtained by the experimental procedure mentioned above.
# [22] = system: Alopecurus myosuroides (ALOMY); test: as above; details: visual scoring vs untreated control after about 3 weeks
# Source text: as §4
# [23] = system: Amaranthus retroflexus (AMARE); test: as above; details: visual scoring vs untreated control after about 3 weeks
# Source text: as §4
# [24] = system: Matricaria inodora (MATIN); test: as above; details: visual scoring vs untreated control after about 3 weeks
# Source text: as §4
# [25] = system: Polygonum convolvulus (POLCO); test: as above; details: visual scoring vs untreated control after about 3 weeks
# Source text: as §4
# [26] = system: Setaria viridis (SETVI); test: as above; details: visual scoring vs untreated control after about 3 weeks
# Source text: as §4
# [27] = system: Veronica persica (VERPE); test: as above; details: visual scoring vs untreated control after about 3 weeks
# Source text: as §4
# [28] = system: Viola tricolor (VIOTR); test: as above; details: visual scoring vs untreated control after about 3 weeks
# Source text: as §4
# [29] = system: Digitaria sanguinalis (DIGSA); test: Pre-emergence herbicide efficacy at 320 g/ha, greenhouse pot test; details: visual scoring vs untreated control after about 3 weeks
# Source text: as §3
# [30] = system: Veronica persica (VERPE); test: Post-emergence herbicidal efficacy at 80 g/ha, greenhouse pot test; details: visual rating vs untreated control after about 3 weeks
# Description: as §2
# [31] = system: Polygonum convolvulus (POLCO); test: as above; details: visual rating vs untreated control after about 3 weeks
# Description: as §2
# [32] = 320 g/ha, visual scoring vs untreated control after about 3 weeks
SMILES,Post-emergence efficacy against Abutilon theophrasti (ABUTH) [1],Post-emergence efficacy against Amaranthus retroflexus (AMARE) [3],Post-emergence efficacy against Bassia scoparia (KCHSC) [4],Post-emergence action against Stellaria media (STEME) [6],Post-emergence efficacy against Veronica persica (VERPE) [7],Post-emergence efficacy against Amaranthus retroflexus (AMARE) [8],Post-emergence efficacy against Viola tricolor (VIOTR) [9],Pre-emergence efficacy against Abutilon theophrasti (ABUTH) [10],Pre-emergence efficacy against Amaranthus retroflexus (AMARE) [12],Pre-emergence efficacy against Matricaria inodora (MATIN) [16],Pre-emergence efficacy against Setaria viridis (SETVI) [18],Pre-emergence efficacy against Stellaria media (STEME) [19],Pre-emergence efficacy against Veronica persica (VERPE) [20],Pre-emergence efficacy against Abutilon theophrasti (ABUTH) [21],Pre-emergence efficacy against Alopecurus myosuroides (ALOMY) [22],Pre-emergence efficacy against Amaranthus retroflexus (AMARE) [23],Pre-emergence efficacy against Polygonum convolvulus (POLCO) [25],Pre-emergence efficacy against Setaria viridis (SETVI) [26],Pre-emergence efficacy against Veronica persica (VERPE) [27],Pre-emergence efficacy against Viola tricolor (VIOTR) [28],other results
Cc1cc(C)c(-c2cc(C(F)F)no2)c(Oc2ncc(Cl)cn2)n1 [Example I-1],90%,100%,90%,100%,100%,100%,90%,100%,100%,100%,100%,100%,100%,80%,90%,100%,90%,80%,90%,90%,"Post-emergence efficacy against Alopecurus myosuroides (ALOMY) [2]: 90%; Post-emergence efficacy against Poa annua (POAAN) [5]: 90%; Pre-emergence efficacy against Alopecurus myosuroides (ALOMY) [11]: 100%; Pre-emergence efficacy against Bassia scoparia (KCHSC) [13, 32]: 90%; Pre-emergence efficacy against Echinochloa crus-galli (ECHCG) [14]: 100%; Pre-emergence efficacy against Lolium rigidum (LOLRI) [15]: 90%; Pre-emergence efficacy against Poa annua (POAAN) [17]: 100%; Pre-emergence efficacy against Matricaria inodora (MATIN) [24]: 100%"
Cc1cc(C)c(-c2cc(C(F)(F)Cl)no2)c(Oc2ncc(Cl)cn2)n1 [Example I-8],90%,100%,90%,90%,100%,100%,90%,100%,100%,100%,90%,100%,100%,100%,90%,100%,90%,100%,80%,90%,"Post-emergence efficacy against Alopecurus myosuroides (ALOMY) [2]: 100%; Pre-emergence efficacy against Alopecurus myosuroides (ALOMY) [11]: 100%; Pre-emergence efficacy against Bassia scoparia (KCHSC) [13, 32]: 100%; Pre-emergence efficacy against Digitaria sanguinalis (DIGSA) [29]: 100%; Pre-emergence efficacy against Poa annua (POAAN) [17]: 100%"
Cc1cc(C)c(-c2cc(C(F)F)no2)c(Oc2ccc(C#N)cn2)n1 [Example I-292],90%,100%,90%,100%,100%,90%,90%,90%,100%,100%,90%,100%,90%,–,80%,100%,–,–,90%,90%,"Post-emergence efficacy against Poa annua (POAAN) [5]: 100%; Post-emergence efficacy against Veronica persica (VERPE) [30]: 90%; Pre-emergence efficacy against Bassia scoparia (KCHSC) ([13]; dosage 1280 g/ha in Table C6, visual scoring after about 3 weeks): 100%"
Cc1cc(C)c(-c2cc(C(F)F)no2)c(Oc2ccc(F)cn2)n1 [Example I-293],–,–,–,–,–,100%,–,–,–,–,–,–,–,90%,90%,100%,80%,100%,80%,90%,Post-emergence efficacy against Polygonum convolvulus (POLCO) [31]: 100%; Pre-emergence efficacy against Matricaria inodora (MATIN) [24]: 100%
